Test results published in the supplement of paper PMC10307832.

Tests used:
Assay in all cases: relative viability (nuclei count vs DMSO), 5 days (fraction); higher = more cells survive
VE-821 = compound: CS(=O)(=O)c1ccc(-c2cnc(N)c(C(=O)Nc3ccccc3)n2)cc1 [VE-821]
Procedure, shortened: (§1)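 MetaXpress counted nuclei in 4× images of lung cancer cell lines that had been fixed, permeabilised and Hoechst-stained in one step. Before that, cells in 1536-well plates were kept overnight at 37 °C, pinned with five √10-spaced library-drug doses on vehicle-anchored plates, and cultured 5 days without medium change. Viability takes treated-well nuclei over vehicle-well nuclei and uses the median across plates. Plates were accepted only at control CV below 25% and at least one doubling.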

Vismodegib = compound: CS(=O)(=O)c1ccc(C(=O)Nc2ccc(Cl)c(-c3ccccn3)c2)c(Cl)c1 [Vismodegib]
Procedure, shortened: as §1

Ruxolitinib = compound: N#CC[C@H](C1CCCC1)n1cc(-c2ncnc3[nH]ccc23)cn1 [Ruxolitinib]
Procedure, shortened: as §1

Row | Cell Line | relative viability (VE-821; 0.08 µM) | relative viability (VE-821; 0.253 µM) | relative viability (VE-821; 0.8 µM) | relative viability (VE-821; 2.53 µM) | relative viability (VE-821; 8 µM) | relative viability (Vismodegib; 0.08 µM) | relative viability (Vismodegib; 0.253 µM) | relative viability (Vismodegib; 0.8 µM) | relative viability (Vismodegib; 2.53 µM) | relative viability (Vismodegib; 8 µM) | relative viability (Ruxolitinib; 0.08 µM) | relative viability (Ruxolitinib; 0.253 µM) | relative viability (Ruxolitinib; 0.8 µM) | relative viability (Ruxolitinib; 2.53 µM) | relative viability (Ruxolitinib; 8 µM)
1 | NCI-H1437 | 1.03 | 0.97 | 0.988 | 1.01 | 0.956 | 0.951 | 0.967 | 1.01 | 0.964 | 0.999 | 1.09 | 1.1 | 1.08 | 0.946 | 0.848
2 | NCI-H1563 | 1.01 | 0.985 | 0.81 | 0.886 | 0.762 | 0.944 | 0.931 | 0.954 | 1.04 | 1.02 | 0.985 | 0.99 | 1.02 | 0.853 | 0.879
3 | NCI-H1623 | 1.06 | 0.987 | 0.84 | 1.01 | 0.809 | 0.943 | 1.01 | 1.06 | 0.978 | 1.01 | 0.942 | 0.936 | 1.14 | 1.14 | 1.28
4 | NCI-H1648 | 1.21 | 0.787 | 0.876 | 0.946 | 0.674 | 1 | 0.893 | 0.766 | 0.987 | 0.74 | 0.644 | 1.02 | 1.11 | 1.25 | 1.49
5 | NCI-H1650 | 0.934 | 0.841 | 0.911 | 0.802 | 0.465 | 0.934 | 0.813 | 0.877 | 0.864 | 0.941 |  | 0.958 | 1.29 | 0.812 | 0.787
6 | NCI-H1651 | 0.976 | 0.954 | 0.922 | 0.977 | 0.969 | 0.945 | 0.976 | 0.947 | 0.956 | 1.02 | 0.948 | 0.978 | 0.971 | 0.939 | 0.976
7 | NCI-H1666 | 1.02 | 0.952 | 1.01 | 1.1 | 0.853 | 0.931 | 0.928 | 1 | 0.955 | 1.07 | 1 | 0.987 | 1.07 | 0.884 | 1.1
8 | NCI-H1703 | 1.09 | 0.793 | 0.836 | 0.689 | 0.444 | 0.998 | 0.826 | 1.21 | 0.824 | 1.33 | 0.994 | 0.862 | 0.978 | 0.498 | 0.663
9 | NCI-H1734 | 1.07 | 0.989 | 0.964 | 1.03 | 0.656 | 0.966 | 0.954 | 0.951 | 0.993 | 0.961 | 0.962 | 0.914 | 1.15 | 0.879 | 0.942
10 | NCI-H1755 | 1.04 | 0.966 | 0.905 | 0.957 | 0.873 | 0.983 | 0.982 | 1.01 | 1 | 0.982 | 0.974 | 0.989 | 1.03 | 0.916 | 0.825
11 | NCI-H1792 | 1.26 | 0.817 | 0.842 | 1.37 | 0.824 | 0.854 | 0.877 | 0.941 | 0.928 | 0.922 | 0.871 | 0.761 | 0.856 | 0.822 | 0.561
12 | NCI-H1793 | 0.996 | 0.744 | 0.747 | 1.16 | 0.713 |  | 0.857 | 0.96 | 0.904 | 0.784 | 0.972 | 0.928 | 1.12 | 0.946 | 0.699
13 | NCI-H1915 | 1.07 | 0.949 | 1.02 | 1.05 | 0.755 | 1.02 | 1.01 | 0.957 | 0.983 | 0.907 | 0.983 | 1.03 | 1.07 | 0.901 | 0.85
14 | NCI-H1944 | 1.18 | 0.933 | 0.873 | 1.08 | 0.425 | 1.05 | 1.02 | 0.966 | 0.904 | 1.04 | 1.02 | 0.927 | 0.968 | 0.875 | 0.863
15 | NCI-H1975 | 1.01 | 0.845 | 0.811 | 0.795 | 0.739 | 0.901 | 0.925 | 1.03 | 1.02 | 1.01 | 0.893 | 0.92 | 0.973 | 0.83 | 0.649
16 | NCI-H1993 | 0.92 | 0.844 | 0.916 | 0.929 | 0.692 | 0.807 | 0.916 | 0.859 | 0.875 | 0.87 | 0.872 | 0.774 | 1.04 | 1 | 0.771
17 | NCI-H2009 | 1.03 | 0.961 | 1 | 1.06 | 0.863 | 0.982 | 0.977 | 0.976 | 0.964 | 0.992 | 1.03 | 1.01 | 1.04 | 0.842 | 0.657
